Data taken from paper PMC8207694, “Nucleoside transporter-guided cytarabine-conjugated liposomes for intracellular methotrexate delivery and cooperative choriocarcinoma therapy” (Journal of Nanobiotechnology, 2021).
One block for each compound: values may come before it.

What was measured:
[1] = system: JEG-3 cells; test: Effect of endocytosis inhibitors on liposome uptake; assay type: cell-based, human; conditions: pre-treatment 30 min; chlorpromazine 50 μM, indomethacin 50 μM, colchicine 10 μM, quercetin 10 μM
Experimental: Endocytosis was studied by adding JEG-3 cells to 6 well-plates and pre-treating them for 30 min with inhibitors of various endocytic pathways including the clathrin-dependent endocytosis inhibitor chlorpromazine (50 μM), the caveolin-dependent endocytosis inhibitor indomethacin (50 μM), the micropinocytosis inhibitor colchicine (10 μM), and quercetin (10 μM) as tools for inhibiting caveolae- or clathrin-independent endocytosis. Then, the medium was removed, and the fresh medium containing Dox-labeled liposomes was added to the plate. The cells were incubated for another 4 h. Subsequent steps were the same as those in uptake assay.

[2] = system: JEG-3 cells; test: Specific uptake of cytarabine into the cells (LC/MS); assay type: cell-based, human; conditions: Cy 5 μM, after 30 min and 1 h; compared with Pricell-0051, MCF-7, HepG2 cells; P < 0.05
Experimental: JEG-3 cells, MCF-7 cells, or HepG2 cells were plated overnight in 6-well plates. Then, the adhered cells were treated with Cy (5 μM) for 30 min or 60 min. Then, cells were washed with PBS for moving the free drug in the medium. After that, the cells were lysed and treated with acetonitrile for precipitating protein. Finally, the content of Cy was detected by LC/MS (8050, SHIMADZU, Japan).

[3] = molecular target: T1, ENT1 (Homo sapiens, UniProt Q99808); test: Competitive inhibition of liposome uptake by ENT1 substrates; assay type: cell-based; design: endogenous in cells; host or cells: JEG-3 (human choriocarcinoma cells); conditions: pre-treatment 2 h, 0.2-5.0 μM, then liposomes 4 h
T1 sequence (Q99808 1-456): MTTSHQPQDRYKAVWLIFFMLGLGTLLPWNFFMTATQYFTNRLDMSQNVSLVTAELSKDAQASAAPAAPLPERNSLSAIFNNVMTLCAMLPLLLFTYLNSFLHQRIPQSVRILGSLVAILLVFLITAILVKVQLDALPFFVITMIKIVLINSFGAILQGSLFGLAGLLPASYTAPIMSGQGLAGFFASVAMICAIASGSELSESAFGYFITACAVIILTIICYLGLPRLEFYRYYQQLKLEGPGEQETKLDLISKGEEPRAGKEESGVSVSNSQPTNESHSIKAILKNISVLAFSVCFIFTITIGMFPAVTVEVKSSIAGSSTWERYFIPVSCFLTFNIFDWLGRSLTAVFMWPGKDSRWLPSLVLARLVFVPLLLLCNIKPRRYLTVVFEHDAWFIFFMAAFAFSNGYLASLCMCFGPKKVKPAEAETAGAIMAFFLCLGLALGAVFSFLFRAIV
Experimental: Briefly, different concentration (0.2–5.0 μM) of 2′-deoxycytidine or gemcitabine was cultured with the adherent JEG-3 cells for 2 h. Then, the medium was removed, and the fresh medium containing Dox-labeled liposomes was added to the plate. The cells were incubated for another 4 h. Subsequent steps were the same as those in uptake assay.

[4] = molecular target: T1, ENT1; test: Effect of ENT1 competitive inhibitors on MTX formulation cytotoxicity (MTT); conditions: then 20 μg MTX-equivalent/mL for 48 h; for effect of pre-treatment on toxicity of Cy-Lipo@MTX to JEG-3 cells: inhibitor 0.2-5.0 μM for 2 h
Experimental: To investigate the effect of ENT1 on MTX formulations induced cytotoxicity, 2′-deoxycytidine and gemcitabine, as competitive inhibitors of ENT1, were cultured with adherent JEG-3 cells for 2 h. Next, the medium was removed, and the fresh medium containing MTX formulations (20 μg MTX-equivalent/mL) was added to the plate. The cells were incubated for another 48 h. MTT reagent was added as previously described, and absorbance was assessed via microplate reader.

Compound: CN(C)CCCN1c2ccccc2Sc2ccc(Cl)cc21 [chlorpromazine]
effect of endocytosis inhibitor on uptake of Dox-labeled Cy-Lipo [1]: next most substantial inhibition

Compound: Nc1ccn([C@@H]2O[C@H](CO)[C@@H](O)[C@@H]2O)c(=O)n1 [Cy, cytosine β-d-arabinofuranoside]
amount of Cy taken up by JEG-3 cells [2]: significantly higher than that taken up by Pricell-0051, MCF-7, and HepG2 cells

Compound: COc1cc2c(c(OC)c1OC)-c1ccc(OC)c(=O)cc1[C@@H](NC(C)=O)CC2 [colchicine]
effect of endocytosis inhibitor on uptake of Dox-labeled Cy-Lipo [1]: reduced effect

Compound: O=c1c(O)c(-c2ccc(O)c(O)c2)oc2cc(O)cc(O)c12 [Quercetin, quercetin]
effect of endocytosis inhibitor on uptake of Dox-labeled Cy-Lipo [1]: a certain inhibitory effect

Compound: Nc1ccn([C@@H]2O[C@H](CO)[C@@H](O)C2(F)F)c(=O)n1 [gemcitabine]
effect on uptake of Dox-labeled Cy-Lipo by JEG-3 cells [3]: significantly influenced the uptake of Dox-labeled Cy-Lipo at concentrations of 1.0 μM and 5.0 μM
effect of pre-treatment on toxicity of Cy-Lipo@MTX to JEG-3 cells [4]: significantly reduced the toxicity of Cy-Lipo@MTX to JEG-3 cells
effect of pre-treatment on cytotoxicity of free MTX or Lipo@MTX in JEG-3 cells ([4]; inhibitor for 2 h): little effect

Compound: COc1ccc2c(c1)c(CC(=O)O)c(C)n2C(=O)c1ccc(Cl)cc1 [indomethacin]
effect of endocytosis inhibitor on uptake of Dox-labeled Cy-Lipo [1]: impacted the uptake of Dox-labeled Cy-Lipo to the greatest extent

effect on uptake of Dox-labeled Lipo by JEG-3 cells [3]: less of effect
Compound: Cl.Nc1ccn([C@H]2C[C@H](O)[C@@H](CO)O2)c(=O)n1 [deoxycytidine, 2′-deoxycytidine hydrochloride]
effect on uptake of Dox-labeled Cy-Lipo by JEG-3 cells [3]: significantly reduce the uptake of Dox-labeled Cy-Lipo by JEG-3 cells in a concentration-dependent manner
effect of pre-treatment on toxicity of Cy-Lipo@MTX to JEG-3 cells [4]: significantly reduced the toxicity of Cy-Lipo@MTX to JEG-3 cells
